For series [1], the system named is A549 (human non-small cell lung carcinoma) cells. As to the kind of experiment: Inhibition of the migration of A549 cells: scratch assay. It is filed as cell-based. To be noted: at 30 nM; A549 cells exposed 38 hours; 40 ng/ml HGF. As for the experimental part: Cells from the A549 (human non-small cell lung carcinoma) line are cultured in an incubator at 37° C. in the presence of 5% CO2 in RPMI 1640 medium containing 10% foetal calf serum, 40 ng/ml HGF (hepatocyte growth factor), 2 mM glutamine, 50 units/ml penicillin, 50 μg/ml streptomycin and 10 mM Hepes buffer, pH=7.4. For the migration test, the A549 cells are transferred to 96-well plates (50,000 cells per well) and cultured for 24 hours to obtain cells at confluence. A one-millimetre thick scratch is made in the cell layer, and the cells are exposed to the compounds under test for 38 hours. The cell cultures are then photographed, and filling of the scratch as a result of migration of the cells is assessed.

Series [2] relates to human glioblastoma tumour U87-MG. In words: Inhibition of growth of the tumour U87-MG grafted subcutaneously in mice. As to conditions: oral route; for inhibition of growth: Day 35. It is filed as in vivo, female Nude BalbC mouse. On the procedure: The human glioblastoma tumour U87-MG was grafted subcutaneously into the female Nude BalbC mouse in an amount of 10^6 cells. The tumours were then randomised into groups of eight mice once the tumour volume had reached 200 mm^3. Daily treatment (6.25, 12.5, 25 and 50 mg/kg) was administered by the oral route (vehicle=water) over a period of 17 days except for the weekends. The tumour volumes were measured twice a week using a sliding calliper. The inhibition of growth found after administration of the compounds according to the invention is statistically significant (two-factor ANOVA, with measurements repeated over time, followed by a DUNETT's test) at all doses tested between Day 21 and Day 35 (date for ethical sacrifice of the mice in the control group in conformity with ethical rules). […] Regression of the order of 70% is observed at a dose of 50 mg/kg.

In general, melting point refers to the temperature of the solid-liquid transition. `CC(=C1C(=O)Nc2ccc(CN3C(=O)CSC3=O)cc21)c1cc(CN2CCOCC2)c[nH]1.Cl` had a melting point of 225 °C.
For the compound `Cl.O=C1Nc2ccc(CN3CCOC3=O)cc2C1=Cc1ccc(CN2CCOCC2)[nH]1`, the melting point stood at 195 °C.
On to `CC(=C1C(=O)Nc2ccc(CN3CCOC3=O)cc21)c1cc(CN2CCOCC2)c[nH]1.Cl`, for which the melting point was found to be 212 °C.
Turning to `Cl.O=C1Nc2ccc(CN3CCSC3=O)cc2C1=Cc1cc(CN2CCOCC2)c[nH]1`, the melting point came out at 244 °C.
As for `Cl.O=C1Nc2ccc(CN3C(=O)COC3=O)cc2C1=Cc1cc(CN2CCOCC2)c[nH]1`, the melting point worked out at 216 °C.
The compound `Cl.O=C1Nc2ccc(CN3CCOC3=O)cc2C1=Cc1cc(CN2CCCC2)c[nH]1` showed a melting point of 204 °C.
In the case of `Cl.O=C1Nc2ccc(CN3CCOC3=O)cc2C1=Cc1cc(CN2CCCCC2)c[nH]1`, the melting point was determined as 256 °C.
`CCN(CC)Cc1c[nH]c(C=C2C(=O)Nc3ccc(CN4CCOC4=O)cc32)c1.Cl` returned a melting point of 192 °C.
For `Cl.O=C1Nc2ccc(CN3C(=O)[C@H]4C[C@H]4C3=O)cc2C1=Cc1cc(CN2CCCCC2)c[nH]1`, the melting point was 198 °C.
`Cl.O=C1Nc2ccc(CN3CCOC3=O)cc2C1=Cc1cc(CN2C[C@H]3C[C@H]3C2)c[nH]1`: the melting point was 179 °C.
Still for that read-out and setting: for `Cc1[nH]c(C=C2C(=O)Nc3ccc(CN4CCOC4=O)cc32)c(C)c1CN1C[C@H]2CCC[C@H]2C1.Cl` the value was 204 °C; for `CC(=C1C(=O)Nc2ccc(CN3C(=O)COC3=O)cc21)c1cc(CN2CCOCC2)c[nH]1.Cl`, 220 °C; for `Cl.O=C1Nc2ccc(CN3C(=O)CCC3=O)cc2C1=Cc1cc(CN2CCOCC2)c[nH]1`, 212 °C.
The compound `Cl.O=C1Nc2ccc(CN3CCOC3=O)cc2C1=Cc1c[nH]cc1CN1CCOCC1` displayed a melting point of 210 °C.
Take `Cl.O=C1Nc2ccc(CCN3C(=O)CSC3=O)cc2C1=Cc1cc(CN2CCOCC2)c[nH]1`: the melting point is 289 °C (dec.).
For the compound `CC1(C)OC(=O)N(Cc2ccc3c(c2)C(=Cc2cc(CN4CCOCC4)c[nH]2)C(=O)N3)C1=O.Cl`, the melting point was 191 °C.
As usually defined, the inhibition of growth is the relative decrease from the control value, in per cent. As to `Cl.O=C1Nc2ccc(CN3C(=O)CSC3=O)cc2C1=Cc1cc(CN2CCOCC2)c[nH]1` [Example 1, 3-[(3-{[4-(4-Morpholinylmethyl)-1H-pyrrol-2-yl]methylene}-2-oxo-2,3-dihydro-1H-indol-5-yl)methyl]-1,3-thiazolidine-2,4-dione hydrochloride], in series [1], the “inhibition of migration (filling of the scratch)” value is given as “total inhibition”. For the same compound, the inhibition of growth in series [2] (6.25 mg/kg daily) turned out to be 102%; in series [2] (12.5 mg/kg daily), 84%; in series [2] (25 mg/kg daily), 98%. The same compound displayed a regression in series [2] (50 mg/kg daily) of roughly 70%.
For `O=C1Nc2ccc(CN3CCOC3=O)cc2C1=Cc1[nH]ccc1CN1CCOCC1` [Example 21, 3-(3-Morpholin-4-ylmethyl-1H-pyrrol-2-ylmethylene)-5-(2-oxo-oxazolidin-3-ylmethyl)-1,3-dihydro-indol-2-one], the melting point amounted to 192 °C.
